Results reported in paper PMC4774972, “Activity and Predicted Nephrotoxicity of Synthetic Antibiotics Based on Polymyxin B” (Journal of Medicinal Chemistry, 2016).
Converted amounts (≈) assume the structure as drawn. Like-named read-outs stand apart in the source and are kept apart here. Bridge positions count the residues as written; N and C are the ends. Square brackets hold non-standard residues; d marks the D form. Peptide text beside a SMILES is read from it. * marks the point of attachment. dDab = NCC[C@@H](N)C(=O)O; hSer = N[C@@H](CCO)C(=O)O; Octanoyl = CCCCCCCC(=O)*; Dab = NCC[C@H](N)C(=O)O

Key:
[1] = tested on: panel of predominantly G-ve bacteria
[2] = tested on: K. pneumoniae CI Koprana 100650661:1, PmxR; assay: microbe, parasite or virus in culture; assay type: cell-based, Klebsiella pneumoniae
[3] = tested on: K. pneumoniae CI 138-16357-20362, PmxR; assay: microbe, parasite or virus in culture; assay type: cell-based, Klebsiella pneumoniae
[4] = tested on: P. aeruginosa FADDI-PA070, PmxR; conditions: MIC P. aeruginosa FADDI-PA070, PmxR (µg/mL)
[5] = tested on: K. pneumoniae CI Koprana 100650661:1, PmxR; conditions: MIC K. pneumoniae CI Koprana 100650661:1, PmxR (µg/mL)
[6] = tested on: K. pneumoniae CI 138-16357-20362, PmxR; conditions: MIC K. pneumoniae CI 138-16357-20362, PmxR (µg/mL)
[7] = tested on: A. baumannii CI Ptyela 100734512:2, PmxR; conditions: MIC A. baumannii CI Ptyela 100734512:2, PmxR (µg/mL)
[8] = tested on: S. aureus ATCC 25923, MSSA; conditions: MIC S. aureus ATCC 25923, MSSA (µg/mL)
[9] = tested on: P. aeruginosa PA9704, PmxR; conditions: MIC P. aeruginosa PA9704, PmxR (µg/mL)
HepG2 = conditions: CC50 HepG2 (µM)
K. pneumoniae ATCC 13883 [10] = conditions: MIC K. pneumoniae ATCC 13883 (µg/mL)
[11] = tested on: A. baumannii CI Ptyela 100734512:2, PmxR; assay: microbe, parasite or virus in culture; assay type: cell-based, Acinetobacter baumannii
[12] = tested on: S. aureus ATCC 25923, MSSA; assay: microbe, parasite or virus in culture; assay type: cell-based, Staphylococcus aureus; conditions: ATCC 25923, 18 h
HepG2 cells = assay: Cytotoxicity assay (resazurin assay); assay type: cell-based, human; conditions: 4000 cells/well, 24 h incubation with compound, fluorescence 560/590
[13] = tested on: primary human renal proximal tubule epithelial (hPT) cells; assay: Nephrotoxicity assay, GGT release; assay type: cell-based
Description: Primary human renal proximal tubule epithelial (hPT) cells were isolated and used for in vitro prediction of drug-induced nephrotoxicity[63],[64],[69] by measuring the release of metabolism enzymes, LDH and GGT, as previously described.[70]

[14] = tested on: P. aeruginosa FADDI-PA070, PmxR; assay type: cell-based, Pseudomonas aeruginosa
Method: (§1) Bacteria were either obtained from American Type Culture Collection (ATCC; Manassas, VA, USA) or independent academic clinical isolate collections, as listed in Table S2. Bacteria were cultured in nutrient broth (NB; Bacto Laboratories, catalog no. 234000) or Muller Hinton broth (MHB; Bacto Laboratories, catalog no. 211443) at 37 °C overnight with shaking (∼180 rpm). A sample of each culture was then diluted 50-fold in fresh MHB and incubated at 37 °C for 1.5–3 h with shaking (∼180 rpm). Compound stock solutions were prepared as 0.64 or 2.56 mg/mL in water. The compounds, at twice the final desired concentration, were serially diluted 2-fold across the wells of 96-well plates (Polystyrene, Corning, catalogue No. 3370). Mid log phase bacterial cultures (after 1.5–3 h incubation) were diluted to a final concentration of 5 × 10^5 colony forming units (CFU)/mL, and 50 μL was added to each well giving a final compound concentration range of 32 μg/mL to 0.015 μg/mL (128–0.06 μg/mL for colistin and polymyxin B against the polymyxin resistant clinical isolates). MICs were determined visually after 18 h of incubation at 37 °C, with the MIC defined as the lowest compound concentration at which no bacterial growth was visible.
(§2) Table S2. Bacterial strains used for Minimum Inhibitory Concentration (MIC) […]
(§3) Organism Strain Strain description Strain Source
(§4) Escherichia coli ATCC 25922 FDA strain Seattle 1946 ATCC
(§5) Klebsiella pneumoniae ATCC 13883 Control strain ATCC
(§6) Klebsiella pneumoniae ATCC 700603 Multi-drug resistant ATCC
(§7) Klebsiella pneumoniae BAA-2146 Metallo-beta-lactamase- ATCC
(§8) Acinetobacter baumannii ATCC 19606 Type strain ATCC
(§9) Pseudomonas aeruginosa ATCC 27853 Type strain ATCC
(§10) Pseudomonas aeruginosa FADDI-PA070 Clinical isolate, Nation and Li labs, polymyxin resistant Monash University
(§11) Clinical isolate, Wang Hengzhuang, Pseudomonas aeruginosa PA9704 polymyxin resistant University Hospital of […]
(§12) Ptyela Clinical isolate, Ilias Karaiskos and Acinetobacter baumannii Carbapenem & Helen Giamarellou
(§13) Clinical isolate, Medicine, Hygeia
(§14) Klebsiella pneumoniae Koprana Carbapenem, & General Hospital, […]
(§15) Clinical isolate, (Instituto Dante […]
(§16) polymyxin resistant Cardiologia, São […]

[15] = tested on: P. aeruginosa PA9704, PmxR; assay type: cell-based, Pseudomonas aeruginosa
Method: as §1, §2, §3, §4, §5, §6, §7, §8, §9, §10, §11, §12, §13, §14, §15, §16

E. coli ATCC 25922 [16] = assay: microbe, parasite or virus in culture; assay type: cell-based, Escherichia coli; conditions: ATCC 25922, 18 h
Method: as §1, §2, §3, §4, §5, §6, §7, §8, §9, §10, §11, §12, §13, §14, §15, §16

K. pneumoniae ATCC 13883 [17] = assay: microbe, parasite or virus in culture; assay type: cell-based, Klebsiella pneumoniae; conditions: ATCC 13883, 18 h
E. coli ATCC 25922 [18] = conditions: MIC E. coli ATCC 25922 (µg/mL)
[19] = tested on: K. pneumoniae ATTC BAA-2146, NDM-1 pos; conditions: MIC K. pneumoniae ATTC BAA-2146, NDM-1 pos (µg/mL)
P. aeruginosa ATCC 27853 [20] = conditions: MIC P. aeruginosa ATCC 27853 (µg/mL)
[21] = tested on: K. pneumoniae ATCC 700603, MDR; conditions: MIC K. pneumoniae ATCC 700603, MDR(µg/mL)
A. baumannii ATCC 19606 [22] = conditions: MIC A. baumannii ATCC 19606 (µg/mL)
P. aeruginosa ATCC 27853 [23] = assay: microbe, parasite or virus in culture; assay type: cell-based, Pseudomonas aeruginosa; conditions: ATCC 27853, 18 h
Method: as §1, §2, §3, §4, §5, §6, §7, §8, §9, §10, §11, §12, §13, §14, §15, §16

A. baumannii ATCC 19606 [24] = assay type: cell-based, Acinetobacter baumannii; conditions: ATCC 19606, 18 h
Method: as §1, §2, §3, §4, §5, §6, §7, §8, §9, §10, §11, §12, §13, §14, §15, §16

[25] = carbapenem & polymyxin resistant clinical isolate, MHB, 5 × 10^5 CFU/mL, 18 h at 37 °C
[26] = polymyxin resistant clinical isolate, MHB, 5 × 10^5 CFU/mL, 18 h at 37 °C

| Compound | MIC for most strains [1] | MIC K. pneumoniae CI Koprana 100650661:1, PmxR [2, 25] | MIC K. pneumoniae CI 138-16357-20362, PmxR [3, 25] | MIC [4] | MIC [5] | MIC [6] | MIC [7] | MIC [8] | MIC [9] | CC50 (HepG2) | MIC (K. pneumoniae ATCC 13883 [10]) | MIC S. aureus ATCC 25923, MSSA [12] | HepG2 - CC50 (HepG2 cells) | MIC E. coli ATCC 25922 (E. coli ATCC 25922 [16]) | MIC K. pneumoniae ATCC 13883 (K. pneumoniae ATCC 13883 [17]) | MIC A. baumannii CI Ptyela 100734512:2, PmxR [11, 25] | MIC (E. coli ATCC 25922 [18]) | MIC (A. baumannii ATCC 19606 [22]) | MIC P. aeruginosa FADDI-PA070, PmxR [14, 26] | MIC P. aeruginosa PA9704, PmxR [15, 26] | further results |
| --- | --- | --- | --- | --- | --- | --- | --- | --- | --- | --- | --- | --- | --- | --- | --- | --- | --- | --- | --- | --- | --- |
| CCCCCCCC(=O)N[C@@H](CCN)C(=O)N[C@H](C(=O)N[C@@H](CCN)C(=O)N[C@H]1CCNC(=O)[C@H]([C@@H](C)O)NC(=O)[C@H](CCN)NC(=O)[C@H](CCNC(=O)[C@@H](N)CCC(=O)O)NC(=O)[C@H](CC(C)C)NC(=O)[C@@H](Cc2ccccc2)NC(=O)[C@H](CCN)NC1=O)[C@@H](C)O [Compound 23] (Octanoyl-[Dab]T[Dab][Dab][Dab][dF]L[Dab](Glu)[Dab]T; lactam 4-C) | 1 to 8 µg/mL | >32 µg/mL | >32 µg/mL | > 32 µg/mL | > 32 µg/mL | > 32 µg/mL | > 32 µg/mL | > 32 µg/mL | > 32 µg/mL | > 300 µM |  |  |  |  |  |  |  |  |  |  |  |
| CCCCCCCC(=O)N[C@@H](CCN)C(=O)N[C@H](C(=O)N[C@@H](CCN)C(=O)N[C@H]1CCNC(=O)[C@H]([C@@H](C)O)NC(=O)[C@H](CCN)NC(=O)[C@H](CCO)NC(=O)[C@H](CC(C)C)NC(=O)[C@@H](Cc2ccccc2)NC(=O)[C@H](CCN)NC1=O)[C@@H](C)O [Compound 24] (Octanoyl-[Dab]T[Dab][Dab][Dab][dF]L[hSer][Dab]T; lactam 4-C) | 1 to 8 µg/mL | >32 µg/mL | >32 µg/mL | > 32 µg/mL | > 32 µg/mL | > 32 µg/mL | > 32 µg/mL | > 32 µg/mL | > 32 µg/mL | > 300 µM | > 32 µg/mL |  |  |  |  |  |  |  |  |  |  |
| CCCCCCCC(=O)N[C@@H](CCN)C(=O)N[C@H](C(=O)NCC(=O)N[C@H]1CCNC(=O)[C@H]([C@@H](C)O)NC(=O)[C@H](CCN)NC(=O)[C@H](CCN)NC(=O)[C@H](CC(C)C)NC(=O)[C@@H](Cc2ccccc2)NC(=O)[C@H](CCN)NC1=O)[C@@H](C)O [Compound 38] (Octanoyl-[Dab]TG[Dab][Dab][dF]L[Dab][Dab]T; lactam 4-C) |  |  |  | > 32 µg/mL | > 32 µg/mL | > 32 µg/mL | > 32 µg/mL | > 64 µg/mL | > 32 µg/mL | > 300 µM |  | >64 µg/mL | > 300 µM |  |  |  |  |  |  |  | MIC among the reference strains ([1]; for most strains): 0.5 to 2 µg/mL; MIC K. pneumoniae CI Koprana 100650661:1, PmxR ([2]; CI Koprana 100650661:1, PmxR, 18 h): >32 µg/mL; MIC K. pneumoniae CI 138-16357-20362, PmxR ([3]; CI 138-16357-20362, PmxR, 18 h): >32 µg/mL; MIC A. baumannii CI Ptyela 100734512:2, PmxR ([11]; CI Ptyela 100734512:2, PmxR, 18 h): >32 µg/mL; GGT release CC50 [13]: >128 µg/mL; MIC P. aeruginosa FADDI-PA070, PmxR ([14]; FADDI-PA070, PmxR, 18 h): >32 µg/mL; MIC P. aeruginosa PA9704, PmxR ([15]; PA9704, PmxR, 18 h): >32 µg/mL |
| CCCCCCCC(=O)N[C@H](C(=O)NCC(=O)N[C@H]1CCNC(=O)[C@H]([C@@H](C)O)NC(=O)[C@H](CCN)NC(=O)[C@H](CCN)NC(=O)[C@H](CC(C)C)NC(=O)[C@@H](Cc2ccccc2)NC(=O)[C@H](CCN)NC1=O)[C@@H](C)O [Compound 39] (Octanoyl-TG[Dab][Dab][dF]L[Dab][Dab]T; lactam 3-C) |  | >32 µg/mL | >32 µg/mL | > 32 µg/mL | > 32 µg/mL | > 32 µg/mL | > 32 µg/mL | > 32 µg/mL | > 32 µg/mL | > 300 µM | > 32 µg/mL | >32 µg/mL | >300 µM | 4 µg/mL (≈ 3.82 µM) | >32 µg/mL | >32 µg/mL | 4 µg/mL (≈ 3.82 µM) | > 32 µg/mL | >32 µg/mL | >32 µg/mL | MIC [19]: > 32 µg/mL; MIC (P. aeruginosa ATCC 27853 [20]): 16 µg/mL (≈ 15.3 µM); MIC [21]: > 32 µg/mL; MIC P. aeruginosa ATCC 27853 (P. aeruginosa ATCC 27853 [23]): 16 µg/mL (≈ 15.3 µM); MIC A. baumannii ATCC 19606 (A. baumannii ATCC 19606 [24]): >32 µg/mL |
| CCCCCCCC(=O)N[C@H](CCN)C(=O)N[C@H](C(=O)NCC(=O)N[C@H]1CCNC(=O)[C@H]([C@@H](C)O)NC(=O)[C@H](CCN)NC(=O)[C@H](CCN)NC(=O)[C@H](CC(C)C)NC(=O)[C@@H](Cc2ccccc2)NC(=O)[C@H](CCN)NC1=O)[C@@H](C)O [Compound 40] (Octanoyl-[dDab]TG[Dab][Dab][dF]L[Dab][Dab]T; lactam 4-C) |  | >32 µg/mL | >32 µg/mL | > 32 µg/mL | > 32 µg/mL | > 32 µg/mL | > 32 µg/mL | > 64 µg/mL | > 32 µg/mL | > 300 µM | > 32 µg/mL | >64 µg/mL | >300 µM | >32 µg/mL | >32 µg/mL | >32 µg/mL | > 32 µg/mL | > 64 µg/mL | >32 µg/mL | >32 µg/mL | MIC A. baumannii ATCC 19606 (A. baumannii ATCC 19606 [24]): >64 µg/mL |
